Experimental data as given in patent US20150005288A1, “SUBSTITUTED PHENYLIMIDAZOPYRAZOLES AND USE THEREOF” (Bayer Intellectual Property GmbH, priority 2012, published 2015).
Counter-ions that a name gives are not always drawn.

Biological target: T1, intracellular domain of human Tie2 (GST fusion protein) (Homo sapiens, UniProt Q02763)
T1 construct: intracellular domain of human Tie2 (amino acids 776-1124); made in house; host or cells: Baculovirus-infected insect cells (Hi5)
Experiment: Tie2 kinase assay (Tie2-TR-FRET)
Assay type: biochemical
Settings: ATP concentration 1 mM, in some cases means of several independent determinations
Summary of the method: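 GST fusion of human Tie2 intracellular domain (aa 776-1124, Hi5-expressed), ~30 ng/ml, pre-incubated 15 min with compound, then 1 mM ATP and 1 μM biotinylated peptide, 60 min at 22 °C, pH 7. TR-FRET (Eu anti-phosphotyrosine/streptavidin-XL665, 665/620 nm ratio). […] 20 μM–0.073 nM in duplicate; IC50 by 4-parameter fit.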

T1 sequence (Q02763 776-1124): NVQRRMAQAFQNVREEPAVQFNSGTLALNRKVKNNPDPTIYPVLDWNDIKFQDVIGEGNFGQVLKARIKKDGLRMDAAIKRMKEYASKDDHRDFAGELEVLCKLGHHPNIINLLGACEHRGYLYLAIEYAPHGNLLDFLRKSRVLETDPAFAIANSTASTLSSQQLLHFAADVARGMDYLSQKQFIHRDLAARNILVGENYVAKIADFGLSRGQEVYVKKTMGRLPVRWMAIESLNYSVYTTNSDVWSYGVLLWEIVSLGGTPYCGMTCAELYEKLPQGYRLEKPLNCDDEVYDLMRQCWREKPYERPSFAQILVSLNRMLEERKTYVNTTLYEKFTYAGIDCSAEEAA

| SMILES | IC50 [nM] |
| --- | --- |
| Cc1cc(C)c(-n2ccn3nc(-c4cccnc4)cc23)cc1NC(=O)c1cccc(OC(F)(F)C(F)F)c1 [Example 129, N-{2,4-Dimethyl-5-[6-(pyridin-3-yl)-1H-imidazo[1,2-b]pyrazol-1-yl]phenyl}-3-(1,1,2,2-tetra-fluoroethoxy)benzamide] | 3.2 |
| Cc1cc(C)c(-n2ccn3nc(-c4cccnc4)cc23)cc1NC(=O)c1cccc(OCC(F)(F)F)c1 [Example 130, N-{2,4-Dimethyl-5-[6-(pyridin-3-yl)-1H-imidazo[1,2-b]pyrazol-1-yl]phenyl}-3-(2,2,2-trifluoroethoxy)benzamide] | 24 |
| COc1cccc(C(=O)Nc2cc(-n3ccn4nc(-c5cccnc5)cc34)c(C)cc2C)c1 [Example 131, N-{2,4-Dimethyl-5-[6-(pyridin-3-yl)-1H-imidazo[1,2-b]pyrazol-1-yl]phenyl}-3-methoxybenzamide] | 252 |
| Cc1cc(C)c(-n2ccn3nc(-c4cccnc4)cc23)cc1NC(=O)c1cccc(OC(C)C)c1 [Example 132, N-{2,4-Dimethyl-5-[6-(pyridin-3-yl)-1H-imidazo[1,2-b]pyrazol-1-yl]phenyl}-3-isopropoxybenzamide] | 4.6 |
| Cc1cc(C)c(-n2ccn3nc(-c4cccnc4)cc23)cc1NC(=O)c1cccc(OCC(C)C)c1 [Example 133, N-{2,4-Dimethyl-5-[6-(pyridin-3-yl)-1H-imidazo[1,2-b]pyrazol-1-yl]phenyl}-3-isobutoxybenzamide] | 53 |
| Cc1cc(C)c(-n2ccn3nc(-c4cccnc4)cc23)cc1NC(=O)c1cccc(OC(C)(C)C)c1 [Example 134, 3-tert-Butoxy-N-{2,4-dimethyl-5-[6-(pyridin-3-yl)-1H-imidazo[1,2-b]pyrazol-1-yl]phenyl}-benzamide] | 55 |
| CCOCCOc1cccc(C(=O)Nc2cc(-n3ccn4nc(-c5cccnc5)cc34)c(C)cc2C)c1 [Example 135, N-{2,4-Dimethyl-5-[6-(pyridin-3-yl)-1H-imidazo[1,2-b]pyrazol-1-yl]phenyl}-3-(2-ethoxyethoxy)-benzamide] | 607 |
| Cc1cc(C)c(-n2ccn3nc(-c4cccnc4)cc23)cc1NC(=O)c1cccc(OCCO)c1 [Example 136, N-{2,4-Dimethyl-5-[6-(pyridin-3-yl)-1H-imidazo[1,2-b]pyrazol-1-yl]phenyl}-3-(2-hydroxyethoxy)benzamide] | 687 |
| Cc1cc(C)c(-n2ccn3nc(-c4cccnc4)cc23)cc1NC(=O)c1cccc(OCCN(C)C)c1 [Example 137, 3-[2-(Dimethylamino)ethoxy]-N-{2,4-dimethyl-5-[6-(pyridin-3-yl)-1H-imidazo[1,2-b]pyrazol-1-yl]phenyl}benzamide] | 409 |
| Cc1cc(C)c(-n2ccn3nc(-c4cccnc4)cc23)cc1NC(=O)c1cccc(N2CCC(F)(F)CC2)c1 [Example 138, 3-(4,4-Difluoropiperidin-1-yl)-N-{2,4-dimethyl-5-[6-(pyridin-3-yl)-1H-imidazo[1,2-b]pyrazol-1-yl]phenyl}benzamide] | 65 |
| Cc1cc(C)c(-n2ccn3nc(-c4cccnc4)cc23)cc1NC(=O)c1cccc(C(C)(C)C(F)(F)F)c1 [Example 139, N-{2,4-Dimethyl-5-[6-(pyridin-3-yl)-1H-imidazo[1,2-b]pyrazol-1-yl]phenyl}-3-(1,1,1-trifluoro-2-methylpropan-2-yl)benzamide] | 0.5 |
| Cc1cc(C)c(-n2ccn3nc(-c4cccnc4)cc23)cc1NC(=O)c1cccc(C2(C)COC2)c1 [Example 140, N-{2,4-Dimethyl-5-[6-(pyridin-3-yl)-1H-imidazo[1,2-b]pyrazol-1-yl]phenyl}-3-(3-methyloxetan-3-yl)benzamide] | 0.5 |
| Cc1cc(C)c(-n2ccn3nc(-c4cccnc4)cc23)cc1NC(=O)c1cccc(C(C)(C)O)c1 [Example 141, N-{2,4-Dimethyl-5-[6-(pyridin-3-yl)-1H-imidazo[1,2-b]pyrazol-1-yl]phenyl}-3-(2-hydroxypropan-2-yl)benzamide] | 62 |
| Cc1cc(C)c(-n2ccn3nc(-c4cccnc4)cc23)cc1NC(=O)c1cccc(C(C)(C)F)c1 [Example 142, N-{2,4-Dimethyl-5-[6-(pyridin-3-yl)-1H-imidazo[1,2-b]pyrazol-1-yl]phenyl}-3-(2-fluoropropan-2-yl)benzamide] | 0.9 |
| Cc1cc(C)c(-n2ccn3nc(-c4cccnc4)cc23)cc1NC(=O)c1cc(N2CCCCC2)cc(S(F)(F)(F)(F)F)c1 [Example 143, N-{2,4-Dimethyl-5-[6-(pyridin-3-yl)-1H-imidazo[1,2-b]pyrazol-1-yl]phenyl}-3-(pentafluoro-λ^6-sulphanyl)-5-(piperidin-1-yl)benzamide] | 1.3 |
| Cc1cc(C)c(-n2ccn3nc(-c4cccnc4)cc23)cc1NC(=O)c1cc(N2CCC(C#N)CC2)cc(S(F)(F)(F)(F)F)c1 [Example 144, 3-(4-Cyanopiperidin-1-yl)-N-{2,4-dimethyl-5-[6-(pyridin-3-yl)-1H-imidazo[1,2-b]pyrazol-1-yl]-phenyl}-5-(pentafluoro-λ^6-sulphanyl)benzamide] | 0.6 |
| COC1CCN(c2cc(C(=O)Nc3cc(-n4ccn5nc(-c6cccnc6)cc45)c(C)cc3C)cc(S(F)(F)(F)(F)F)c2)CC1 [Example 145, N-{2,4-Dimethyl-5-[6-(pyridin-3-yl)-1H-imidazo[1,2-b]pyrazol-1-yl]phenyl}-3-(4-methoxypiperidin-1-yl)-5-(pentafluoro-λ^6-sulphanyl)benzamide] | 0.9 |
| COC1CN(c2cc(C(=O)Nc3cc(-n4ccn5nc(-c6cccnc6)cc45)c(C)cc3C)cc(S(F)(F)(F)(F)F)c2)C1 [Example 146, N-{2,4-Dimethyl-5-[6-(pyridin-3-yl)-1H-imidazo[1,2-b]pyrazol-1-yl]phenyl}-3-(3-methoxyazetidin-1-yl)-5-(pentafluoro-λ^6-sulphanyl)benzamide] | 0.7 |
| Cc1cc(C)c(-n2ccn3nc(-c4cccnc4)cc23)cc1NC(=O)c1cc(C#N)cc(S(F)(F)(F)(F)F)c1 [Example 147, 3-Cyano-N-{2,4-dimethyl-5-[6-(pyridin-3-yl)-1H-imidazo[1,2-b]pyrazol-1-yl]phenyl}-5-(pentafluoro-λ^6-sulphanyl)benzamide dihydrochloride] | 0.2 |
| Cc1cc(C)c(-n2ccn3nc(-c4cccnc4)cc23)cc1NC(=O)c1cc(C(C)(C)O)cc(S(F)(F)(F)(F)F)c1 [Example 148, N-{2,4-Dimethyl-5-[6-(pyridin-3-yl)-1H-imidazo[1,2-b]pyrazol-1-yl]phenyl}-3-(2-hydroxypropan-2-yl)-5-(pentafluoro-λ^6-sulphanyl)benzamide] | 0.4 |
| Cc1cc(C)c(-n2ccn3nc(-c4cccnc4)cc23)cc1NC(=O)c1cc(C(C)(C)F)cc(S(F)(F)(F)(F)F)c1 [Example 149, N-{2,4-Dimethyl-5-[6-(pyridin-3-yl)-1H-imidazo[1,2-b]pyrazol-1-yl]phenyl}-3-(2-fluoropropan-2-yl)-5-(pentafluoro-λ^6-sulphanyl)benzamide] | 2.3 |
| Cc1cc(C)c(-n2ccn3nc(-c4cccnc4)cc23)cc1NC(=O)c1cc(CC(=O)OC(C)(C)C)cc(S(F)(F)(F)(F)F)c1 [Example 150, tert-Butyl [3-({2,4-dimethyl-5-[6-(pyridin-3-yl)-1H-imidazo[1,2-b]pyrazol-1-yl]phenyl}-carbamoyl)-5-(pentafluoro-λ^6-sulphanyl)phenyl]acetate] | 2.4 |
| Cc1cc(C)c(-n2ccn3nc(-c4cccnc4)cc23)cc1NC(=O)c1cc(CC(=O)O)cc(S(F)(F)(F)(F)F)c1 [Example 151, [3-({2,4-Dimethyl-5-[6-(pyridin-3-yl)-1H-imidazo[1,2-b]pyrazol-1-yl]phenyl}carbamoyl)-5-(pentafluoro-λ^6-sulphanyl)phenyl]acetic acid] | 6.1 |
| COC(=O)Cc1cc(C(=O)Nc2cc(-n3ccn4nc(-c5cccnc5)cc34)c(C)cc2C)cc(S(F)(F)(F)(F)F)c1 [Example 152, Methyl [3-({2,4-dimethyl-5-[6-(pyridin-3-yl)-1H-imidazo[1,2-b]pyrazol-1-yl]phenyl}carbamoyl)-5-(pentafluoro-λ^6-sulphanyl)phenyl]acetate] | 0.4 |
| Cc1cc(C)c(-n2ccn3nc(-c4cccnc4)cc23)cc1NC(=O)c1cc(CC(N)=O)cc(S(F)(F)(F)(F)F)c1 [Example 153, 3-(2-Amino-2-oxoethyl)-N-{2,4-dimethyl-5-[6-(pyridin-3-yl)-1H-imidazo[1,2-b]pyrazol-1-yl]-phenyl}-5-(pentafluoro-λ^6-sulphanyl)benzamide] | 0.3 |
| Cc1cc(C)c(-n2ccn3nc(-c4cccnc4)cc23)cc1NC(=O)c1cc(CC(C)(C)O)cc(S(F)(F)(F)(F)F)c1 [Example 154, N-{2,4-Dimethyl-5-[6-(pyridin-3-yl)-1H-imidazo[1,2-b]pyrazol-1-yl]phenyl}-3-(2-hydroxy-2-methylpropyl)-5-(pentafluoro-λ^6-sulphanyl)benzamide] | 0.4 |
| COCCOCc1cc(C(=O)Nc2cc(-n3ccn4nc(-c5cccnc5)cc34)c(C)cc2C)cc(S(F)(F)(F)(F)F)c1 [Example 155, N-{2,4-Dimethyl-5-[6-(pyridin-3-yl)-1H-imidazo[1,2-b]pyrazol-1-yl]phenyl}-3-[(2-methoxy-ethoxy)methyl]-5-(pentafluoro-λ^6-sulphanyl)benzamide] | 0.7 |
| Cc1ccc(NC(=O)c2cc(C#N)cc(S(F)(F)(F)(F)F)c2)c(O)c1-n1ccn2nc(-c3cccnc3)cc12 [Example 156, 3-Cyano-N-{2-hydroxy-4-methyl-3-[6-(pyridin-3-yl)-1H-imidazo[1,2-b]pyrazol-1-yl]phenyl}-5-(pentafluoro-λ^6-sulphanyl)benzamide] | 5.9 |
| Cc1ccc(NC(=O)c2cccc(S(F)(F)(F)(F)F)c2)cc1-n1ccn2nc(-c3cccnc3)c(F)c12 [Example 158, N-{3-[7-Fluoro-6-(pyridin-3-yl)-1H-imidazo[1,2-b]pyrazol-1-yl]-4-methylphenyl}-3-(pentafluoro-λ^6-sulphanyl)benzamide] | 58 |
